The structures appear in SMILES notation. Structures can show the parent of a compound that is named as a salt.

Results on three compounds are retold here after patent US3965180A, “4'-Fluoro-4-{[4-(phenyl)-4-alkoxy-cyclo-hexyl]amino}butyrophenones and the salts thereof” (The Upjohn Company, priority 1973, dated 1976).

Format in all cases: in vivo
Test [1] has as its system mice. Briefly: Nicotine antagonism test (nicotine salicylate 2 mg./kg.; (3) death). Particulars: Mus musculus, ip, intraperitoneal injection 30 minutes before nicotine salicylate (2 mg./kg.), read-out: ED50, Ni = nicotine antagonism (3) test. On the procedure: (§1) Tranquilizing effects of certain compounds of this invention are shown by the following tests in mice:
Nicotine antagonism test: Mice in a group of 6 are injected with the test compound. Thirty minutes later the mice including control (untreated) mice are injected with nicotine salicylate (2 mg./kg.). The control mice show overstimulation, i.e., (1) running convulsions followed by (2) tonic extensor fits; followed by (3) death.

Test [2] concerns mice. As to the kind of experiment: Chimney test (ability of mice to back up and out of a vertical glass cylinder within 30 seconds). The conditions noted are these: Mus musculus, ip, intraperitoneal injection, dose at which 50% of the mice failed to back out within 30 seconds, read-out: ED50, Ch = chimney test.
Text: (§2) The free bases and acid addition salts of the novel compounds of Formula I are useful as central nervous system (CNS) depressants when administered to humans and animals.
as §1
Chimney test: [Med. Exp. 4, 145 (1961)]: The test determines the ability of mice to back up and out of a vertical glass cylinder within 30 seconds. At the effective dosage, 50% of the mice failed doing it.

Test [3] concerns mice. As to the kind of experiment: Pedestal test (mice staying on the pedestal for more than 1 minute). The conditions noted are these: Mus musculus, ip, 1 min, intraperitoneal injection, stay on pedestal for more than 1 minute, read-out: ED50, P = pedestal test. On the procedure: as §2, §1
Pedestal test: The untreated mouse leaves a standard pedestal in less than a minute to climb back to the floor of the standard mouse box. Tranquilized mice will stay on the pedestal for more than 1 minute.

Test [4] deals with mice. Briefly: Dish test (mice remaining in Petri dish for more than 3 minutes). Particulars: Mus musculus, ip, 0.05 h, intraperitoneal injection, dose at which 50% of the mice remain in the dish more than 3 minutes, read-out: ED50, D = dish test. On the procedure: as §2, §1
Dish test: Mice in Petri dishes (10 cm. diameter, 5 cm. high, partially embedded in wood shavings), climb out in a very short time, when not treated. Mice remaining in the dish for more than 3 minutes indicates tranquilization. ED50 equals the dose of test compound at which 50% of the mice remain in the dish.

What is called ED50 is the dose that gives a 50% effect, or the effect in half of the subjects. Consider `CO[C@]1(c2ccc(F)cc2)CC[C@@H](NCCCC(=O)c2ccc(F)cc2)CC1` [4'-fluoro-4-{[4-cis-(p-fluorophenyl)-4-transmethoxycyclohexyl]amino}butyrophenone hydrohydrochloride (I)], for which the ED50 turned out to be 3.2 mg/kg in the test with mice [1], 8 mg/kg in the test with mice [2], 2.5 mg/kg in the test on mice [3] and 1.6 mg/kg with mice [4].
Take `CO[C@]1(c2ccc(C)cc2)CC[C@H](NCCCC(=O)c2ccc(F)cc2)CC1` [4'-fluoro-4-{[4-cis-methoxy-4-trans-(p-methylphenyl)cyclohexyl]amino}butyrophenone hydrochloride (I)]: the ED50 in the test with mice [1] came out at 4.5 mg/kg; in the test with mice [2], 2.5 mg/kg; with mice [3], 2 mg/kg; in the test with mice [4], 1.1 mg/kg.
On to `CO[C@]1(c2ccc(F)cc2)CC[C@H](NCCCC(=O)c2ccc(F)cc2)CC1` [4'-fluoro-4-{[4-trans-(p-fluorophenyl)-4-cis-methoxycyclohexyl]amino}butyrophenone hydrochloride (I)], for which the median effective dose (ED50) in the test with mice [1] amounted to 0.4 mg/kg; in the test on mice [2], 2.5 mg/kg; in the test with mice [3], 1.3 mg/kg; with mice [4], 0.09 mg/kg.
